Measured values from PubChem BioAssay (NCI).
Values joined by “and” are separate entries in the source; they are usually repeats but may differ in a detail not shown here. Identical values can stand only once.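 Cultured in 96-well plates, cells were exposed to test compound for 48 hours across five concentrations. GI50 = concentration required for 50% inhibition of growth. TGI: total growth inhibition.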 Where a SMILES comes first, the peptide text is derived from it. [ ]: non-standard residue; d: D form. The star is where a group is joined. ξ: configuration not given here. ξD = NC(CC(=O)O)C(=O)O; Ac3c = NC1(C(=O)O)CC1; Boc = CC(C)(C)OC(=O)*; OBn = c1ccc(CO*)cc1

Experiments:
Test in all cases: growth of human tumour cells (NCI), 48 h
SK-MEL-28 melanoma = tested on: SK-MEL-28 melanoma
SK-OV-3 ovarian = tested on: SK-OV-3 ovarian
SNB-75 CNS = tested on: SNB-75 CNS
RPMI-8226 leukemia = tested on: RPMI-8226 leukemia
SK-MEL-5 melanoma = tested on: SK-MEL-5 melanoma
MOLT-4 leukemia = tested on: MOLT-4 leukemia
NCI/ADR-RES ovarian = tested on: NCI/ADR-RES ovarian
HL-60(TB) leukemia = tested on: HL-60(TB) leukemia
NCI-H23 lung = tested on: NCI-H23 lung
SR leukemia = tested on: SR leukemia

Compound | TGI (SK-MEL-28 melanoma) | TGI (SK-OV-3 ovarian) | TGI (SNB-75 CNS) [µM] | TGI (RPMI-8226 leukemia) [µM] | TGI (SK-MEL-5 melanoma) [µM] | TGI (MOLT-4 leukemia) [µM] | TGI (NCI/ADR-RES ovarian) [µM] | TGI (HL-60(TB) leukemia) [µM] | TGI (NCI-H23 lung) [µM] | TGI (SR leukemia) [µM] | GI50 (SK-MEL-28 melanoma) [µM] | GI50 (SK-OV-3 ovarian) [µM] | GI50 (HL-60(TB) leukemia) [µM]
CC(=O)OCc1cc(=O)n(C)c2c3c4c(cc12)c(C)cc(=O)n4CO3 | 3.42 µM | 51 µM | 4.69 | 11.1 | 4.18 | 4.25 | 10.9 | 16.2 | 5.01 | – | – | – | –
Cc1cc(=O)n2nc(CSc3nnc(N)s3)sc2n1 | > 100 µM | > 100 µM | > 100 | > 100 | > 100 | > 100 | > 100 | > 100 | > 100 | – | – | – | –
O=c1[nH]c(=O)n(COCc2ccccc2)c2ccc(Br)cc12 | > 100 µM | > 100 µM | > 100 | – | > 100 | > 100 | > 100 | > 100 | – | > 100 | – | – | –
NCCNCCCCCCNC(=O)c1cccc2cc3ccccc3nc12 | 12.3 µM | – | 11.8 | 6.82 | 13.4 | 4.47 | 38.4 | 3.51 | 6.81 | – | – | – | –
COC(=O)C1(NC(=O)C(CC(=O)OCc2ccccc2)NC(=O)OC(C)(C)C)CC1 (stereo not drawn) (Boc-[ξD](OBn)-[Ac3c]-OMe) | > 100 µM | 77.4 µM | > 100 | > 100 | > 100 | > 100 | > 100 | – | > 100 | – | – | – | –
O=c1[nH]c(=O)n(COCc2ccccc2)c2ccc([N+](=O)[O-])cc12 | > 100 µM | > 100 µM | > 100 | – | > 100 | > 100 | > 100 | > 100 | – | > 100 | – | – | –
Cc1ccc(C)c(COCCOCn2cc(Br)c(N)nc2=O)c1 | > 100 µM | > 100 µM | > 100 | – | – | > 100 | > 100 | > 100 | > 100 | > 100 | – | – | –
CN(C)CCOC(=O)c1ccc(N)cc1 | 67.5 µM | > 100 µM | – | 75.2 | > 100 | 61.5 | > 100 | 83.7 | > 100 | – | – | – | –
CN(C)CCCNc1c2ccccc2nc2cccc([N+](=O)[O-])c12 | 0.00689 µM and 0.0422 µM | 0.0921 µM and 0.0723 µM | – | – | < 0.001 | 0.052 | 0.186 | 0.0721 | – | 0.0576 | 0.0202 | 0.0204 | 0.0175
CC(=O)NC1C(OCc2ccccc2)OC(CO)C(O)C1OCC(=O)NC(C)C(=O)NC(CCC(=O)NCCCCCNc1c2ccccc2nc2cccc([N+](=O)[O-])c12)C(N)=O (stereo not drawn) | < 0.0001 µM | – | 0.00164 | < 0.0001 | 0.00124 | – | – | 0.0455 | – | – | – | – | –
COc1cc(/C=C2\N=C(c3ccccc3)N(/N=C3\C(=O)Nc4ccccc43)C2=O)cc(OC)c1OC | > 100 µM | > 100 µM | > 100 | – | > 100 | > 100 | > 100 | > 100 | > 100 | > 100 | – | – | –
COC(=O)c1nc(-c2ccc3c(n2)C(=O)C(N)=C(OC)C3=O)c(N)c(-c2ccc(OC)c(OC)c2O)c1C | 2.77 µM | 3.73 µM | 3.73 | 3.6 | 1.96 | – | 3.09 | 6.32 | 1.38 | – | – | – | –
